Reference: US7901675B2, “Method of using coenzyme Q10 to treat Huntington's disease” (U.S. Department of Veterans Affairs, priority 2004, dated 2011)

Assays:
R6/2 mice [1] = experiment: Disease phenotype in R6/2 HD mice (weight loss, motor deficits, grip strength, brain atrophy, huntingtin inclusions); type: in vivo; settings: oral CoQ10 in chow
Method: (§1) The present invention is based, in part, on the discovery that increased level of CoQ10 appears to slow the progressive functional decline in […]. We orally administered CoQ10 at 400 mg/kg, and 1, 5, 10, and 20 g/kg in R6/2 mice starting at weaning in chow formulations.

R6/2 mice [2] = experiment: Survival of R6/2 HD mice on oral CoQ10 in chow; type: in vivo
Method: There is substantial evidence that bioenergetic defects may play a role in the pathogenesis of HD. A possible therapy for diseases in which there is defective energy metabolism is to administer the mitochondrial cofactor coenzyme Q10(CoQ10).
as §1

[3] = oral administration, 400 mg/kg, previously demonstrated

## COC1=C(OC)C(=O)C(C/C=C(\C)CC/C=C(\C)CC/C=C(\C)CC/C=C(\C)CC/C=C(\C)CC/C=C(\C)CC/C=C(\C)CC/C=C(\C)CC/C=C(\C)CCC=C(C)C)=C(C)C1=O [CoQ10, Coenzyme Q10]
R6/2 mice [1]
  development of brain atrophy: significantly delayed
  development of grip strength deficit: significantly delayed
  development of huntingtin inclusions: significantly delayed
  development of motor deficits: significantly delayed
  development of weight loss: significantly delayed
R6/2 mice [2]; [3]
  neuroprotection: neuroprotective
  survival extension: 14.5%
R6/2 mice [2]; oral in chow from weaning, 5 g/kg (greatest extension), vs untreated R6/2 mice
  survival extension: 21.3%
R6/2 mice [2]; oral in chow from weaning, all doses (400 mg/kg, 1, 5, 10, 20 g/kg)
  survival in comparison to untreated R6/2 mice: significantly extended survival at all doses
